Read-outs that look alike come from different tables or passages of the source.
Assays:
Bacillus subtilis 168CA = test: Minimum Inhibitory Concentration (MIC) testing, broth microdilution, Bacillus subtilis; assay type: cell-based; conditions: Bacillus subtilis 168CA; read-out: Bacillus subtilis MICs Activity
Outline: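 MICs were scored A (≦8 μg/ml), B (16–64 μg/ml) or C (>64 μg/ml), read as the lowest concentration preventing visible growth by eye and spectrophotometry. Plates incubated overnight (16–20 h) at 37 °C, inoculum OD 0.09 diluted 1:100 in 2× broth, per NCCLS guidelines.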

[1] = tested on: Staphylococcus aureus ATCC29213; test: Minimum Inhibitory Concentration (MIC) testing, broth microdilution, Staphylococcus aureus; assay type: cell-based; conditions: Staphylococcus aureus ATCC29213; read-out: Staphylococcus aureus MICs Activity
Outline: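 Broth microdilution per NCCLS M7-A5 in Mueller Hinton broth, with compound in 1.6% DMSO and inoculum at OD 0.09 diluted 1:100. Plates incubated 16–20 h at 37°C. MIC is the lowest concentration with no visible growth; scored A ≤8, B 16–64, C >64 μg/ml.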

[2] = tested on: staphylococcal clinical isolates; test: Minimum Inhibitory Concentration (MIC) testing, broth microdilution, staphylococcal clinical isolates; assay type: cell-based; conditions: for MIC: read-out: MIC Activity against clinical isolate
Description: Compounds of this invention were tested for antimicrobial activity by susceptibility testing in liquid media. MICs for compounds against each strain were determined by a broth microdilution method according to the National Committee for Clinical Laboratory Standards (NCCLS) guidelines. (NCCLS. 2000. Methods for dilution antimicrobial susceptibility tests for bacteria that grow aerobically—fifth edition. Approved standard M7-A5. NCCLS, Wayne, Pa.)
Briefly, test compounds are prepared in 100 μl of 1.6% DMSO solution in multiwell plates. Several bacterial colonies from a freshly streaked plate are transferred to an appropriate rich broth, such as Mueller Hinton. The cell suspension is adjusted to an optical density of 0.09 and further diluted 1:100 with warm 2× broth. This cell suspension is dispensed into the wells containing compound solution so that the final volume is 200 μl. The plates are incubated overnight (16-20 hours) at 37° C. and turbidity is scored by eye and quantified spectrophotometrically. The MIC is defined as the lowest concentration inhibiting visible growth.
Some of the Examples were also tested for activity against staphylococcal clinical isolates. […] Activities were again scored as ‘A’ if the MIC was ≦8 micrograms/ml, ‘B’ if the MIC was 16 to 64 micrograms/ml and ‘C’ if the MIC was greater than 64 micrograms/ml.

Staphylococcus aureus = test: mouse Staphylococcus aureus septicaemia model of infection; assay type: in vivo; conditions: survival at day 7 of infected mice; single intraperitoneal dose of 100 mg/kg at 1 hour after intraperitoneal inoculation with a lethal dose of Staphylococcus aureus
Description: Some of the Examples were also tested for activity in a mouse Staphylococcus aureus septicaemia model of infection.

[3] = tested on: various bacterial species; test: Minimum Inhibitory Concentration (MIC) testing, broth microdilution, other bacterial species; assay type: cell-based
Outline: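 Broth microdilution per NCCLS M7-A5 in rich broth (e.g. Mueller Hinton), inoculum from OD 0.09 suspension diluted 1:100 in 2× broth. Incubation 16-20 hours at 37° C; turbidity scored visually and spectrophotometrically. MIC is the lowest concentration inhibiting visible growth, binned A ≦8, B 16-64, C >64 micrograms/ml.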

## NC(=O)c1c(F)ccc(OCc2nc3cc(Cl)ccc3s2)c1F [Example 218, 3-[(5-Chloro-1,3-benzothiazol-2-yl)methoxy]-2,6-difluorobenzenecarboxamide]
Bacillus subtilis 168CA
  MIC: < 8 µg/mL
[1]
  MIC: < 8 µg/mL
[2]; S. aureus No. 753, Oxacillin S, Hospital
  MIC Activity against clinical isolate: A (‘A’ if the MIC was ≦8 micrograms/ml)
[2]; S. aureus No. 757, Oxacillin R, Tet-R, MI-R, Hospital (tetM)
  MIC Activity against clinical isolate: A (‘A’ if the MIC was ≦8 micrograms/ml)
[2]; S. aureus No. 1134, Oxacillin S, Hospital
  MIC Activity against clinical isolate: A (‘A’ if the MIC was ≦8 micrograms/ml)
[2]; S. aureus No. 1135, Oxacillin R, Van-S, LZD-S, Hospital
  MIC Activity against clinical isolate: A (‘A’ if the MIC was ≦8 micrograms/ml)
[2]; S. aureus No. 1651, Oxacillin R, Van-S, LZD-R, Hospital (G2576T, G)
  MIC Activity against clinical isolate: A (‘A’ if the MIC was ≦8 micrograms/ml)
[2]; S. aureus No. 1652, Oxacillin R, Van-S, LZD-R, Hospital (T2500T, A)
  MIC Activity against clinical isolate: A (‘A’ if the MIC was ≦8 micrograms/ml)
[2]; S. aureus No. 1662, Oxacillin S, Hospital
  MIC Activity against clinical isolate: A (‘A’ if the MIC was ≦8 micrograms/ml)
[2]; S. aureus No. 1725, Oxacillin R, Van-S, LZD-R, Hospital (G2576T)
  MIC Activity against clinical isolate: A (‘A’ if the MIC was ≦8 micrograms/ml)
[2]; S. aureus No. 1729, Oxacillin R, Tet-R, MI-R, Hospital
  MIC Activity against clinical isolate: A (‘A’ if the MIC was ≦8 micrograms/ml)
[2]; S. aureus No. 2011, Oxacillin R, Tet-R, MI-S, Hospital (tetK)
  MIC Activity against clinical isolate: A (‘A’ if the MIC was ≦8 micrograms/ml)
[2]; S. aureus No. 2012, Oxacillin R, Van-I, LZD-S, Hospital
  MIC Activity against clinical isolate: A (‘A’ if the MIC was ≦8 micrograms/ml)
[2]; S. aureus No. 2018, Oxacillin R, Van-I, LZD-S, Hospital
  MIC Activity against clinical isolate: A (‘A’ if the MIC was ≦8 micrograms/ml)
[2]; S. aureus No. 2142, Oxacillin R, CC-S, SXT-S, Community
  MIC Activity against clinical isolate: A (‘A’ if the MIC was ≦8 micrograms/ml)
[2]; S. aureus No. 2143, Oxacillin R, Rif-R, Community
  MIC Activity against clinical isolate: A (‘A’ if the MIC was ≦8 micrograms/ml)
[2]; S. aureus No. 2147, Oxacillin R, CC-S, SXT-S, Community
  MIC Activity against clinical isolate: A (‘A’ if the MIC was ≦8 micrograms/ml)
[2]; S. aureus No. 2149, Oxacillin R, CC-R (iMLS), SXT-S, Community
  MIC Activity against clinical isolate: A (‘A’ if the MIC was ≦8 micrograms/ml)
[2]; S. aureus No. 2150, Oxacillin R, CC-R, SXT-S, Community
  MIC Activity against clinical isolate: A (‘A’ if the MIC was ≦8 micrograms/ml)
[2]; S. aureus No. 2158, Oxacillin R, CC-R, Doxy-I, Community
  MIC Activity against clinical isolate: A (‘A’ if the MIC was ≦8 micrograms/ml)
[2]; S. aureus No. 2175, Oxacillin R, TMP-R, Community
  MIC Activity against clinical isolate: A (‘A’ if the MIC was ≦8 micrograms/ml)
[2]; S. epidermidis No. 831, Oxacillin R
  MIC Activity against clinical isolate: A (‘A’ if the MIC was ≦8 micrograms/ml)
[2]; S. epidermidis No. 1139, Oxacillin S
  MIC Activity against clinical isolate: A (‘A’ if the MIC was ≦8 micrograms/ml)
[2]; S. epidermidis No. 1142, Oxacillin R
  MIC Activity against clinical isolate: A (‘A’ if the MIC was ≦8 micrograms/ml)
[2]; S. epidermidis No. 1144, Oxacillin R
  MIC Activity against clinical isolate: A (‘A’ if the MIC was ≦8 micrograms/ml)
[2]; Staphylococcus aureus, ATCC29213, S. aureus No. 0100, Oxacillin S, ATCC 29213
  MIC: < 8 µg/mL
[2]; Staphylococcus aureus, S. aureus No. 1015, Oxacillin R, Van-S, LZD-S, Hospital
  MIC: < 8 µg/mL
[2]; Staphylococcus epidermidis, S. epidermidis No. 835, Oxacillin S
  MIC: < 8 µg/mL
Staphylococcus aureus
  Percent survival: 100%
[3]; Bacillus cereus, ATCC14579, read-out: MIC Activity Bacillus cereus ATCC 14579
  MIC: < 8 µg/mL
[3]; Staphylococcus epidermidis, ATCC12228, read-out: MIC Activity Staphylococcus epidermidis ATCC 12228
  MIC: < 8 µg/mL
[3]; Staphylococcus haemolyticus, ATCC29970, read-out: MIC Activity Staphylococcus haemolyticus ATCC 29970
  MIC: < 8 µg/mL
[3]; Staphylococcus saprophyticus, ATCC15305, read-out: MIC Activity Staphylococcus saprophyticus ATCC 15305
  MIC: < 8 µg/mL

Source: US8088791B2, “Antibacterial agents” (Biots Scientific Management Pty Ltd, priority 2006, dated 2012)
